# Assay results reported in ChEMBL document CHEMBL1201862, “PubChem BioAssay data set” (2004).
#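 All cell lines were grown in 96-well plates and treated with compound for 48 hours. GI50 = concentration required for 50% inhibition of growth.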 Active and inactive are the calls of the source. No stated cut-off is given here; in the data, active = GI50 up to about 1.1 µM and inactive = higher.
# Legend:
# Assay in all cases: NCI-60 cell line screen, 48 h
# DLD-1 = tested on: DLD-1
# DMS-273 = tested on: DMS-273
# KM-20L2 = tested on: KM-20L2
# M19-MEL = tested on: M19-MEL
# SNB-78 = tested on: SNB-78
# DMS-114 = tested on: DMS-114
# HOP-18 = tested on: HOP-18
# LXFL 529 = tested on: LXFL 529
# RXF 631 = tested on: RXF 631
Structure (SMILES),GI50 (DLD-1),GI50 (DMS-273),GI50 (KM-20L2),GI50 (M19-MEL),GI50 (SNB-78),GI50 (DMS-114),GI50 (HOP-18),GI50 (LXFL 529),GI50 (RXF 631)
COc1ccc(O)c(C#N)c1C#N.COc1ccc(OC)c(C#N)c1C#N,> 100 µM (inactive),> 100 µM (inactive),> 100 µM (inactive),> 100 µM (inactive),> 100 µM (inactive),,,,
N#Cc1c2nc3ccccc3nc2n2ccc3ccccc3c12,> 100 µM (inactive),> 100 µM (inactive),,> 100 µM (inactive),> 100 µM (inactive),> 100 µM (inactive),> 100 µM (inactive),> 100 µM (inactive),
CNC(=O)OCc1c(CO)nc(SC)n1C,> 100 µM (inactive),> 100 µM (inactive),> 100 µM (inactive),> 100 µM (inactive),,> 100 µM (inactive),> 100 µM (inactive),,
O=C(O)c1ccccc1/N=C/c1ccc(N(CCCl)CCCl)cc1,> 100 µM (inactive),81.1 µM (inactive),> 100 µM (inactive),> 100 µM (inactive),> 82.8 µM (inactive),,> 100 µM (inactive),,
CC(=O)N/C(=C\c1cccc([N+](=O)[O-])c1)c1nc2ccc3c(c2[nH]1)C(=O)c1ccccc1C3=O,12.2 µM (inactive),,> 100 µM (inactive),> 100 µM (inactive),> 57.9 µM (inactive),> 37.5 µM (inactive),,29.3 µM (inactive),32.6 µM (inactive)
NN,296 µM (inactive),132 µM (inactive),231 µM (inactive),,1190 µM (inactive),,324 µM (inactive),,
CCOC(=O)C(=O)C(C#N)c1ccc(Cl)cc1 (centres undefined),> 100 µM (inactive),> 100 µM (inactive),> 100 µM (inactive),> 100 µM (inactive),> 100 µM (inactive),> 100 µM (inactive),,> 100 µM (inactive),
CCOC(=O)NC(=O)c1c[nH]c(=O)[nH]c1=O,> 100 µM (inactive),> 100 µM (inactive),> 100 µM (inactive),> 100 µM (inactive),> 100 µM (inactive),> 100 µM (inactive),> 100 µM (inactive),> 100 µM (inactive),> 100 µM (inactive)
N#Cc1cccc(/C=N/N/C(N)=N/O)c1,53.2 µM (inactive),> 100 µM (inactive),,> 100 µM (inactive),> 100 µM (inactive),,15.7 µM (inactive),39.4 µM (inactive),
CC1=C(CO)C(=O)OC(C(C)C2CCC3C4CC5OC56C(O)C(N5CC5)=CC(=O)C6(C)C4CCC23C)C1 (centres undefined),4.93 µM (inactive),5.65 µM (inactive),3.05 µM (inactive),11.4 µM (inactive),5.61 µM (inactive),2.13 µM (inactive),,4.32 µM (inactive),11.5 µM (inactive)
CN(C)c1ccc(/C=c2\sc3nnc(Cc4ccccc4)n3c2=O)cc1,> 10 µM (inactive),33.7 µM (inactive),> 10 µM (inactive),> 100 µM (inactive),> 10 µM (inactive),17 µM (inactive),> 10 µM (inactive),> 10 µM (inactive),
CCOC(=O)CC(=O)ON(C)C(C)=O,> 100 µM (inactive),,> 100 µM (inactive),> 100 µM (inactive),> 100 µM (inactive),> 100 µM (inactive),,> 100 µM (inactive),
C[Si](C)(C)C(Sc1ccccc1)(Sc1ccccc1)Sc1ccccc1,53.6 µM (inactive),> 100 µM (inactive),67.1 µM (inactive),34.7 µM (inactive),> 100 µM (inactive),54.8 µM (inactive),,81.5 µM (inactive),
CC(C)N(C(=O)c1cccc(C(=O)N(C(C)C)C(C)C)c1)C(C)C,> 100 µM (inactive),> 100 µM (inactive),> 100 µM (inactive),> 100 µM (inactive),> 100 µM (inactive),> 100 µM (inactive),> 100 µM (inactive),> 100 µM (inactive),> 100 µM (inactive)
CC(=O)NC1=C(NCc2ccc(Cl)cc2)C(=O)c2ccccc2C1=O,6.76 µM (inactive),7.67 µM (inactive),24.3 µM (inactive),5.27 µM (inactive),11 µM (inactive),,,6.55 µM (inactive),
CCCCN(CCCC)c1c([N+](=O)[O-])c(=O)nc2ccccn12,35.4 µM (inactive),,27.4 µM (inactive),8.67 µM (inactive),48.2 µM (inactive),21.7 µM (inactive),,33 µM (inactive),23.4 µM (inactive)
CC[C@H](C)[C@H]1NC(=O)C(C(C)=O)=C1O,70.3 µM (inactive),> 100 µM (inactive),> 100 µM (inactive),71.3 µM (inactive),> 100 µM (inactive),76.7 µM (inactive),58.1 µM (inactive),66.5 µM (inactive),92.5 µM (inactive)
O=[N+]([O-])c1ccc(NC2OCC(O)C(O)C2O)cc1 (centres undefined),> 100 µM (inactive),> 100 µM (inactive),> 100 µM (inactive),,> 100 µM (inactive),> 100 µM (inactive),,> 100 µM (inactive),> 100 µM (inactive)
N=C(N)NS(=O)(=O)c1ccc(NCCc2c3ccccc3nc3ccccc23)cc1,> 100 µM (inactive),72.4 µM (inactive),> 100 µM (inactive),> 100 µM (inactive),,28.3 µM (inactive),,> 100 µM (inactive),35.5 µM (inactive)
CCOc1ccc2nc(NC(=O)c3c/c(=N\NC(=O)C[N+](C)(C)C)c4ccc(O)cc4o3)sc2c1,2.52 µM (inactive),3.34 µM (inactive),3.21 µM (inactive),0.294 µM (active),5 µM (inactive),1.91 µM (inactive),2.06 µM (inactive),2.02 µM (inactive),6.03 µM (inactive)
CC(C)Cc1ccc(C(C)/C=C2\CCC(CN3CCCC3)C2=O)cc1 (centres undefined),2.55 µM (inactive),4.5 µM (inactive),14.4 µM (inactive),3.84 µM (inactive),19.4 µM (inactive),3.8 µM (inactive),19.2 µM (inactive),2.15 µM (inactive),20.2 µM (inactive)
O=C(CC1(O)C(=O)Nc2c(Cl)cc(Cl)cc21)c1ccc2ccccc2c1 (centres undefined),11.6 µM (inactive),3.72 µM (inactive),3.56 µM (inactive),4.49 µM (inactive),16.8 µM (inactive),4.69 µM (inactive),13.3 µM (inactive),9.16 µM (inactive),7.08 µM (inactive)
CCC12CCCN(Cc3ccccc3)C1c1c(n(C)c3ccccc13)C(CO)C2 (centres undefined),61.5 µM (inactive),46.5 µM (inactive),29.3 µM (inactive),59 µM (inactive),,37.8 µM (inactive),,41 µM (inactive),56 µM (inactive)
Cc1cc(C)nc(NS(=O)(=O)c2ccc(NC(=O)c3ccc(Cl)c4c(Nc5ccc(S(=O)(=O)N=C(N)N)cc5)c5ccccc5nc34)cc2)n1,7.67 µM (inactive),33.5 µM (inactive),50.2 µM (inactive),,> 100 µM (inactive),29.9 µM (inactive),> 100 µM (inactive),44.3 µM (inactive),
CN(CC#N)C1CCCC[C@H]1O (some centres undefined),> 100 µM (inactive),> 100 µM (inactive),> 100 µM (inactive),,> 100 µM (inactive),> 100 µM (inactive),> 100 µM (inactive),> 100 µM (inactive),
COC(=O)C1=C(C(=O)OC)C2(OC(C)=O)c3ccccc3-c3ccccc3C12 (centres undefined),1.7 µM (inactive),4.98 µM (inactive),6.15 µM (inactive),4.56 µM (inactive),4.95 µM (inactive),5.37 µM (inactive),5.2 µM (inactive),1.7 µM (inactive),
CC(C)=CC1C(C(=O)O)C1(C)C (centres undefined) [CHRYSANTHEMIC ACID],> 750 µM (inactive),> 750 µM (inactive),> 750 µM (inactive),> 750 µM (inactive),,> 750 µM (inactive),197 µM (inactive),,
